This is an account of results in PubChem BioAssay AID248 (DTP/NCI, 2004).

The test system of this assay is L1210 leukemia ip in BDF1 mice, survival T/C. The assay can be described thus: NCI In Vivo Anticancer Drug Screen. Data for tumor model L1210 Leukemia (intraperitoneal) in B6D2F1 (BDF1) mice. As to conditions: endpoint: mean survival time, higher = longer survival. Put shortly:
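Tumor was transplanted into mice, which were then dosed with test compound or vehicle alone. Survival was recorded for each group, and the treated figure was expressed relative to the control figure.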

Where [1] appears, read: dose: 100.0 mg/kg/injection, schedule: Q01DX009 (ip), vehicle: saline.
[2] abbreviates: dose: 100.0 mg/kg/injection, schedule: Q04DX003 (ip), vehicle: saline.
[3] abbreviates: dose: 200.0 mg/kg/injection, schedule: Q01DX009 (ip), vehicle: saline.
Where [4] appears, read: dose: 200.0 mg/kg/injection, schedule: Q04DX003 (ip), vehicle: saline.
Setting [5] is: dose: 400.0 mg/kg/injection, schedule: Q04DX003 (ip), vehicle: saline.
[6] abbreviates: dose: 100.0 mg/kg/injection, schedule: Q01DX009 (ip), vehicle: saline with Tween-80.
Where [7] appears, read: dose: 100.0 mg/kg/injection, schedule: Q01DX001 (ip), vehicle: saline.
[8] abbreviates: dose: 200.0 mg/kg/injection, schedule: Q01DX001 (ip), vehicle: saline.
Setting [9] is: dose: 400.0 mg/kg/injection, schedule: Q01DX001 (ip), vehicle: saline.
The mark [10] stands for this setting: dose: 100.0 mg/kg/injection, schedule: Q04DX003 (ip), vehicle: Klucel (hydroxypropylcellulose) (HPC).
Setting [11] is: dose: 200.0 mg/kg/injection, schedule: Q04DX003 (ip), vehicle: Klucel (hydroxypropylcellulose) (HPC).
Where [12] appears, read: dose: 100.0 mg/kg/injection, schedule: Q01DX001 (ip), vehicle: carboxymethylcellulose (CMC).
The mark [13] stands for this setting: dose: 200.0 mg/kg/injection, schedule: Q01DX001 (ip), vehicle: carboxymethylcellulose (CMC).
[14] abbreviates: dose: 400.0 mg/kg/injection, schedule: Q01DX001 (ip), vehicle: carboxymethylcellulose (CMC).
Where [15] appears, read: dose: 100.0 mg/kg/injection, schedule: Q04DX003 (ip), vehicle: saline with Tween-80.
Setting [16] is: dose: 200.0 mg/kg/injection, schedule: Q04DX003 (ip), vehicle: saline with Tween-80.
Where [17] appears, read: dose: 400.0 mg/kg/injection, schedule: Q04DX003 (ip), vehicle: saline with Tween-80.
Setting [18] is: dose: 50.0 mg/kg/injection, schedule: Q01DX001 (ip), vehicle: carboxymethylcellulose (CMC).

Where “and” joins values, the source holds several entries; their conditions need not be identical. Equal entries are not always repeated. Inconclusive results and toxic doses are left out.

In the case of `COc1ccc(OC)c2c1C(=O)CC2C` (centres undefined), the T/C reads like this: under setting [1], 100 % of control; under setting [2], 96 % of control; under setting [3], 96 % of control; under setting [4], 96 % of control; under setting [5], 91 % of control.
`CC(C)=CCNc1ncnc2c(C3OC(CO)C(O)C3O)[nH]nc12` (centres undefined): the T/C (dose: 100.0 mg/kg/injection, schedule: Q01DX005 (ip), vehicle: saline) is 95 % of control and the T/C (dose: 200.0 mg/kg/injection, schedule: Q01DX005 (ip), vehicle: saline) was 95 % of control.
Regarding `COc1ccc2[nH]c(-c3ccccc3)cc2c1`, the T/C reads like this: (dose: 25.0 mg/kg/injection, schedule: Q01DX009 (ip), vehicle: saline with Tween-80) 100 % of control; (dose: 50.0 mg/kg/injection, schedule: Q01DX009 (ip), vehicle: saline with Tween-80) 108 % of control; under setting [6], 101 % of control.
For the molecule `C=CCc1cccc(C2N(Cc3ccccc3OC)CCCN2Cc2ccccc2OC)c1O`, the T/C (dose: 50.0 mg/kg/injection, schedule: Q01DX001 (ip), vehicle: saline) is 103 % of control; the T/C under setting [7] was 100 % of control; the T/C under setting [8] was 97 % of control; the T/C under setting [9] was 97 % of control.
Consider `CC(C)OC(=S)SC(C(=O)c1ccccc1)c1ccccc1` (centres undefined), for which the T/C runs as follows: (dose: 100.0 mg/kg/injection, schedule: Q04DX002 (ip), vehicle: Klucel (hydroxypropylcellulose) (HPC)) 91 % of control; (dose: 200.0 mg/kg/injection, schedule: Q04DX002 (ip), vehicle: Klucel (hydroxypropylcellulose) (HPC)) 91 % of control; (dose: 400.0 mg/kg/injection, schedule: Q04DX002 (ip), vehicle: Klucel (hydroxypropylcellulose) (HPC)) 91 % of control.
On to `COc1ccc(Cl)cc1NC(=O)Nc1cccc2c(O)cccc12`, for which the T/C runs as follows: under setting [1], 96 % of control; under setting [2], 107 % of control; under setting [3], 100 % of control; under setting [4], 107 % of control; (dose: 400.0 mg/kg/injection, schedule: Q01DX009 (ip), vehicle: saline) 96 % of control; under setting [5], 103 % of control.
Consider `COC(=O)CCc1ccc(NP(=O)(N2CC2)N2CC2)cc1`, for which the T/C was 122 % of control (dose: 25.0 mg/kg/injection, schedule: Q01DX015 (ip), vehicle: carboxymethylcellulose (CMC)) and 119 % of control (dose: 50.0 mg/kg/injection, schedule: Q01DX015 (ip), vehicle: carboxymethylcellulose (CMC)).
Consider `N#Cc1cnc(N)nc1N`, for which the T/C is, setting by setting: (dose: 50.0 mg/kg/injection, schedule: Q04DX003 (ip), vehicle: Klucel (hydroxypropylcellulose) (HPC)) 113 % of control; (dose: 75.0 mg/kg/injection, schedule: Q01DX001 (ip), vehicle: carboxymethylcellulose (CMC)) 92 % of control; (dose: 75.0 mg/kg/injection, schedule: Q01DX009 (ip), vehicle: Klucel (hydroxypropylcellulose) (HPC)) 102 % of control; under setting [10], 97 % of control; (dose: 150.0 mg/kg/injection, schedule: Q01DX001 (ip), vehicle: carboxymethylcellulose (CMC)) 92 % of control; (dose: 150.0 mg/kg/injection, schedule: Q01DX009 (ip), vehicle: Klucel (hydroxypropylcellulose) (HPC)) 102 % of control. In addition, the T/C under setting [11] was 108 % of control.
`Cc1nc(N)nc(C)c1N=Nc1ccc(Br)cc1`: the T/C (dose: 100.0 mg/kg/injection, schedule: Q04DX003 (ip), vehicle: other) was 90 % of control; the T/C (dose: 200.0 mg/kg/injection, schedule: Q04DX003 (ip), vehicle: other) was 102 % of control; the T/C (dose: 400.0 mg/kg/injection, schedule: Q04DX003 (ip), vehicle: other) is 100 % of control.
`COc1cccc(/C(C)=N\OC(=O)N(C)C)c1`: the T/C is, setting by setting: under setting [12], 95 % of control; under setting [13], 95 % of control; under setting [14], 98 % of control.
For the molecule `O=C(O)C1C2CCC1C2` (centres undefined), the T/C was 98 % of control under setting [15], 101 % of control under setting [16] and 95 % of control under setting [17].
For `CN(C)C(=O)c1ccc(NC(=O)N(CCCl)N=O)cc1`, the T/C runs as follows: (dose: 0.5 mg/kg/injection, schedule: Q01DX001 (ip), vehicle: other) 102 % of control; (dose: 1.0 mg/kg/injection, schedule: Q01DX001 (ip), vehicle: other) 120 % of control; (dose: 2.0 mg/kg/injection, schedule: Q01DX001 (ip), vehicle: other) 150 % of control; (dose: 8.0 mg/kg/injection, schedule: Q01DX001 (ip), vehicle: other) 182 % of control; (dose: 16.0 mg/kg/injection, schedule: Q01DX001 (ip), vehicle: other) 286 % of control; (dose: 31.0 mg/kg/injection, schedule: Q01DX001 (ip), vehicle: other) 88 % of control.
As to `CCOC(=O)C(C)C(=O)c1ccccc1` (centres undefined), the T/C under setting [18] is 107 % of control; the T/C under setting [12] was 102 % of control; the T/C under setting [7] was 95 % of control; the T/C (dose: 100.0 mg/kg/injection, schedule: Q01DX009 (ip), vehicle: acetone) was 96 % of control; the T/C under setting [13] is 107 % of control; the T/C under setting [8] was 94 % of control. For the same molecule, the T/C (dose: 200.0 mg/kg/injection, schedule: Q01DX009 (ip), vehicle: acetone) is 93 % of control; the T/C under setting [14] was 107 % of control; the T/C under setting [9] is 94 % of control; the T/C (dose: 400.0 mg/kg/injection, schedule: Q01DX009 (ip), vehicle: acetone) was 98 % of control.
`Cc1cn(Cc2ccc(Cl)cc2Cl)c(C)n1`: the T/C runs as follows: (dose: 25.0 mg/kg/injection, schedule: Q01DX001 (ip), vehicle: Klucel (hydroxypropylcellulose) (HPC)) 100 % of control; (dose: 25.0 mg/kg/injection, schedule: Q01DX009 (ip), vehicle: Klucel (hydroxypropylcellulose) (HPC)) 97 % of control and 109 % of control; (dose: 50.0 mg/kg/injection, schedule: Q01DX001 (ip), vehicle: Klucel (hydroxypropylcellulose) (HPC)) 100 % of control; (dose: 50.0 mg/kg/injection, schedule: Q04DX002 (ip), vehicle: Klucel (hydroxypropylcellulose) (HPC)) 102 % of control and 108 % of control; (dose: 100.0 mg/kg/injection, schedule: Q01DX001 (ip), vehicle: Klucel (hydroxypropylcellulose) (HPC)) 94 % of control.
As for `Nc1nc(N)c2cc(CCc3ccccc3)ccc2n1`, the T/C was 95 % of control under setting [18]; 95 % of control under setting [12]; 95 % of control under setting [10]; 101 % of control under setting [13]; 90 % of control under setting [11].
`CC1(C)C2CCC(CN=C(N)CSS(=O)(=O)O)C1C2` (centres undefined): the T/C was 91 % of control (dose: 3.13 mg/kg/injection, schedule: Q04DX002 (ip), vehicle: saline with Tween-80); 100 % of control and 107 % of control (dose: 6.25 mg/kg/injection, schedule: Q04DX002 (ip), vehicle: saline with Tween-80); 104 % of control (dose: 12.5 mg/kg/injection, schedule: Q04DX002 (ip), vehicle: saline with Tween-80); 93 % of control (dose: 25.0 mg/kg/injection, schedule: Q04DX002 (ip), vehicle: saline with Tween-80).
As to `CN/N=C/c1ccc(O)c(OC)c1`, the T/C under setting [15] is 95 % of control, the T/C under setting [16] is 90 % of control and the T/C under setting [17] was 91 % of control.
For the molecule `O=[N+]([O-])c1ccc2c(c1)S(=O)c1ccccc1-2` (centres undefined), the T/C reads like this: under setting [15], 109 % of control; under setting [16], 94 % of control.
As for `CCCC[As](=O)(O)CCCc1ccccc1`, the T/C runs as follows: (dose: 0.78 mg/kg/injection, schedule: Q01DX009 (ip), vehicle: saline) 97 % of control; (dose: 1.56 mg/kg/injection, schedule: Q01DX009 (ip), vehicle: saline) 100 % of control; (dose: 3.13 mg/kg/injection, schedule: Q01DX009 (ip), vehicle: saline) 103 % of control.
Regarding `CCCCCC/C(C)=N/O`, the T/C was 94 % of control under setting [6]; 106 % of control under setting [15]; 103 % of control (dose: 200.0 mg/kg/injection, schedule: Q01DX009 (ip), vehicle: saline with Tween-80); 95 % of control under setting [16]; 98 % of control under setting [17].
